Assays:
[1] = Pharmacokinetic study in dogs (IV, PO); assay type: in vivo, Beagle dogs; conditions: Table C, Dog Plasma; for AUC(0-t) / Cmax at 5 min / half-life / AUC(0-inf): male, Beagle; for AUC(0-inf): read-out: AUCINF—obs
Experimental: Pharmacokinetic studies were conducted to estimate plasma concentrations obtained after oral gavage (PO) and intravenous (IV) single administration of compounds administered to separate groups of male Beagle dogs. Three (3) dogs were administered a compound via the intravenous (IV) route at 3 mg/kg and 2.5 mL/kg, and plasma was collected at 12 timepoints over a 24-hour period. Following a 7 days washout period, the same dogs were administered the same compound via PO at 10 mg/kg and 5 mL/kg, and plasma was collected at 12 timepoints over a 48-hour period.
(§1) The in-vivo study plasma samples were analyzed using Ultra Performance Liquid Chromatography (UPLC) with tandem mass spectrometry (MS/MS) detection in multiple reaction monitoring (MRM) mode. A generic bioanalytical method involving plasma sample extraction and cleanup by protein precipitation with acetonitrile was used followed by UPLC-MS/MS analysis.
(§2) A brief example of a generic bioanalytical UPLC-MS/MS method used for analysis of compounds in the in-vivo study plasma samples is as follows. Plasma samples were spiked with internal standard prior to extraction and cleanup by protein precipitation with ice cold acetonitrile containing 0.1% (v/v) ammonium hydroxide at a ratio of 3:1 (solvent:plasma) and centrifuged at 18213 rcf for 15 minutes at 4° C. to pellet precipitates. Aliquots of supernatants were transferred to a 96-well plate and evaporated to dryness at 40° C. under a stream of nitrogen gas. Samples were reconstituted in 50:50 acetonitrile/10 mM ammonium acetate buffer pH 8, mixed thoroughly and analyzed using Ultra Performance Liquid Chromatography (UPLC) with tandem mass spectrometry (MS/MS) detection in multiple reaction monitoring (MRM) mode. Matrix-matched calibration standards and quality control (QC) samples were prepared in naïve C57Bl/6 mouse plasma. The UPLC column used was Waters Acquity UPLC BEH C18 1.7 um, 2.1 mm×50 mm (with guard column). The UPLC mobile phase consisted of: Mobile phase A: 10 mM ammonium acetate in Water pH 8, and Mobile phase B: Acetonitrile. Separation was accomplished with a linear gradient of 5% mobile phase B to 95% mobile phase B in 2 min, and a flow rate of 0.35 mL/min. The MS/MS data acquisition was accomplished using 3 MRM Transitions in ESI+ mode. Parent ion mass 508.37 m/z-to-Daughter ions (m/z) 117.05, 232.13 and 270.22. The quantitation of concentrations in test samples was achieved by matrix-matched calibration with normalization using an internal standard. Data acquisition and analysis were performed using Waters MassLynx software with TargetLynx application manager.
(§3) Estimation of PK parameters was performed using independent noncompartmental model method by PHOENIX WinNonlin software.

[2] = Pharmacokinetic study in mice (IV, PO); assay type: in vivo, mice (C57BL/6); conditions: Mouse Plasma; for AUC(0-t) / half-life / AUC(0-inf) / Cmax / Cmax at 5 min: female, C57BL/6; for AUC(0-inf): read-out: AUCINF—obs; for Cmax: read-out: Cmax (5 min)
Experimental: Pharmacokinetic analysis of compounds was conducted following bolus intravenous (IV) or bolus oral (PO) gavage in mice. Female mice (C57BL/6) in the 17-26 g range were weighed, and then administered an individually prescribed dose volume based on body weight of formulated compound via the intravenous (IV; tail vein) or oral gavage (PO) route (IV 5 mL/kg; PO 10 mL/kg). At selected timepoints post administration, blood was collected into vials with anticoagulant, processed for plasma by centrifugation, and then kept frozen ([…]) until analysis.
as §1, §2, §3

[3] = Pharmacokinetic study in rats (IV, PO); assay type: in vivo, Sprague-Dawley rats; conditions: Table B, Rat Plasma; for AUC(0-t) / half-life / AUC(0-inf) / Cmax: male, Sprague-Dawley; for AUC(0-inf): read-out: AUCINF—obs; for Cmax: read-out: Cmax (5 min)
Experimental: Pharmacokinetic studies were conducted to estimate plasma concentrations obtained after oral gavage (PO) and intravenous (IV) single administration of compounds administered to male Sprague-Dawley rats. Six (6) rats were administered for each compound, route and dose, and plasma was collected at 12 timepoints over a 24 hr period for IV, and 12 timepoints over a 48 hr period for PO. Note that plasma was collected from only 3 animals per timepoint (n=3 for timepoints up to 10 hours, and n=3 for timepoints from 16 h to end of study). Dosing volumes were 5 mL/kg for IV and 10 mL/kg for PO gavage. IV compounds for administration were in solutions, whereas PO compounds were in solution or suspension.
as §1, §2, §3

O=C(N[C@H]1CC[C@@H](Oc2nc(N3CCOCC3)cc3ncccc23)CC1)c1ncccn1 [Compound 123, N-((1s,4s)-4-((7-Morpholino-1,6-naphthyridin-5-yl)oxy)cyclohexyl)pyrimidine-2-carboxamide]
AUC—%Extrap—obs ([1]; IV, 3 mg/kg): 2.17% | Cl_obs ([1]; IV, 3 mg/kg): 10.237 mL/min/kg | Vz_obs ([1]; IV, 3 mg/kg): 4.4105 L/kg | AUC—%Extrap—obs ([1]; PO, 10 mg/kg): 0.29% | Cl_obs ([1]; PO, 10 mg/kg): 10.148 mL/min/kg | F ([1]; PO, 10 mg/kg): 108% | Vz_obs ([1]; PO, 10 mg/kg): 5.13768 L/kg | AUC(0-t) ([1]; IV, 3 mg/kg): 4940 ng·h/mL | Cmax at 5 min ([1]; IV, 3 mg/kg): 2470 ng/mL | half-life ([1]; IV, 3 mg/kg): 5.2 h | AUC(0-inf) ([1]; IV, 3 mg/kg): 5070 ng·h/mL | AUC(0-t) ([1]; PO, 10 mg/kg): 17800 ng·h/mL | Cmax at 5 min ([1]; PO, 10 mg/kg): 2970 ng/mL | half-life ([1]; PO, 10 mg/kg): 6.03 h | AUC(0-inf) ([1]; PO, 10 mg/kg): 17800 ng·h/mL | AUC—%Extrap—obs ([2]; Table A, IV, 3 mg/kg): 0.73% | Cl_obs ([2]; Table A, IV, 3 mg/kg): 21.2632 mL/min/kg | Vz_obs ([2]; Table A, IV, 3 mg/kg): 3.93714 L/kg | AUC—%Extrap—obs ([2]; Table A, PO, 10 mg/kg): 6.92% | Cl_obs ([2]; Table A, PO, 10 mg/kg): 32.236 mL/min/kg | F ([2]; Table A, PO, 10 mg/kg): 62% | Vz_obs ([2]; Table A, PO, 10 mg/kg): 9.80258 L/kg | AUC(0-t) ([2]; Table A, IV, 3 mg/kg): 2330 ng·h/mL | half-life ([2]; Table A, IV, 3 mg/kg): 2.14 h | AUC(0-inf) ([2]; Table A, IV, 3 mg/kg): 2350 ng·h/mL | Cmax ([2]; Table A, IV, 3 mg/kg): 3660 ng/mL | AUC(0-t) ([2]; Table A, PO, 10 mg/kg): 4810 ng·h/mL | half-life ([2]; Table A, PO, 10 mg/kg): 3.51 h | AUC(0-inf) ([2]; Table A, PO, 10 mg/kg): 5170 ng·h/mL | Cmax ([2]; Table A, PO, 10 mg/kg): 2380 ng/mL | AUC—%Extrap—obs ([3]; IV, 3 mg/kg): 0.48% | Cl_obs ([3]; IV, 3 mg/kg): 50.8342 mL/min/kg | Vz_obs ([3]; IV, 3 mg/kg): 4.33451 L/kg | AUC—%Extrap—obs ([3]; PO, 3 mg/kg): 16.96% | Cl_obs ([3]; PO, 3 mg/kg): 252.6873 mL/min/kg | F ([3]; PO, 3 mg/kg): 17% | Vz_obs ([3]; PO, 3 mg/kg): 85.17336 L/kg | AUC—%Extrap—obs ([3]; PO, 10 mg/kg): 19.45% | Cl_obs ([3]; PO, 10 mg/kg): 92.7505 mL/min/kg | F ([3]; PO, 10 mg/kg): 44% | Vz_obs ([3]; PO, 10 mg/kg): 34.17323 L/kg | AUC—%Extrap—obs ([3]; PO, 30 mg/kg): 28.47% | Cl_obs ([3]; PO, 30 mg/kg): 43.6063 mL/min/kg | F ([3]; PO, 30 mg/kg): 84% | Vz_obs ([3]; PO, 30 mg/kg): 19.76577 L/kg | AUC(0-t) ([3]; IV, 3 mg/kg): 979 ng·h/mL | half-life ([3]; IV, 3 mg/kg): 0.99 h | AUC(0-inf) ([3]; IV, 3 mg/kg): 984 ng·h/mL | Cmax ([3]; IV, 3 mg/kg): 1490 ng/mL | AUC(0-t) ([3]; PO, 3 mg/kg): 164 ng·h/mL | half-life ([3]; PO, 3 mg/kg): 3.89 h | AUC(0-inf) ([3]; PO, 3 mg/kg): 198 ng·h/mL | Cmax ([3]; PO, 3 mg/kg): 32.2 ng/mL | AUC(0-t) ([3]; PO, 10 mg/kg): 1450 ng·h/mL | half-life ([3]; PO, 10 mg/kg): 4.26 h | AUC(0-inf) ([3]; PO, 10 mg/kg): 1800 ng·h/mL | Cmax ([3]; PO, 10 mg/kg): 396 ng/mL | AUC(0-t) ([3]; PO, 30 mg/kg): 8200 ng·h/mL | half-life ([3]; PO, 30 mg/kg): 5.24 h | AUC(0-inf) ([3]; PO, 30 mg/kg): 11500 ng·h/mL | Cmax ([3]; PO, 30 mg/kg): 1570 ng/mL

O=C(N[C@H]1CC[C@@H](Oc2nc(N3CCOCC3)cc3ncccc23)CC1)c1cc[nH]c1 [Compound 140, N-((1s,4s)-4-((7-morpholino-1,6-naphthyridin-5-yl)oxy)cyclohexyl)-1H-pyrrole-3-carboxamide]
AUC—%Extrap—obs ([2]; Table D, IV, 3 mg/kg): 0.91% | Cl_obs ([2]; Table D, IV, 3 mg/kg): 34.092 mL/min/kg | Vz_obs ([2]; Table D, IV, 3 mg/kg): 3.32052 L/kg | AUC—%Extrap—obs ([2]; Table D, PO, 10 mg/kg): 0.39% | Cl_obs ([2]; Table D, PO, 10 mg/kg): 77.5327 mL/min/kg | F ([2]; Table D, PO, 10 mg/kg): 44% | Vz_obs ([2]; Table D, PO, 10 mg/kg): 18.51427 L/kg | AUC(0-t) ([2]; Table D, IV, 3 mg/kg): 1450 ng·h/mL | Cmax at 5 min ([2]; Table D, IV, 3 mg/kg): 2020 ng/mL | half-life ([2]; Table D, IV, 3 mg/kg): 1.13 h | AUC(0-inf) ([2]; Table D, IV, 3 mg/kg): 1470 ng·h/mL | AUC(0-t) ([2]; Table D, PO, 10 mg/kg): 2140 ng·h/mL | Cmax at 5 min ([2]; Table D, PO, 10 mg/kg): 1240 ng/mL | half-life ([2]; Table D, PO, 10 mg/kg): 2.76 h | AUC(0-inf) ([2]; Table D, PO, 10 mg/kg): 2150 ng·h/mL

From US20240246960A1 (adMare Therapeutics Society, priority 2021, published 2024)
